This note sets out measurements from patent US20100184770A1, “COMPOUNDS” (Glaxo Group Limited, priority 2006, published 2010).

Assay [1] addresses T1, human H1 receptor (Homo sapiens, UniProt P35367).
T1 construct: expressed in transfected cells
As to the kind of experiment: Histamine H1 functional antagonist assay: determination of functional pKi values (FLIPR). The class given is cell-based. As to conditions: CHO cells expressing human H1 receptor, histamine at EC80, FLIPR, read-out: average pKi (pKb) at H1 (converted). As for the experimental part: 1. Generation of Histamine H1 Cell Line The human H1 receptor is cloned using known procedures described in the literature [Biochem. Biophys. Res. Commun., 201(2):894 (1994)]. Chinese hamster ovary (CHO) cells stably expressing the human H1 receptor are generated according to known procedures described in the literature [Br. J. Pharmacol., 117(6):1071 (1996)].
The histamine H1 cell line is seeded into non-coated black-walled clear bottom 384-well tissue culture plates in alpha minimum essential medium (Gibco/Invitrogen, cat no. 22561-021), supplemented with 10% dialysed foetal calf serum (Gibco/Invitrogen cat no. 12480-021) and 2 mM L-glutamine (Gibco/Invitrogen cat no 25030-024) and is maintained overnight at 5% CO2, 37° C.
Excess medium is removed from each well to leave 10 μl. 30 μl loading dye (250 μM Brilliant Black, 2 μM Fluo-4 diluted in Tyrodes buffer+probenecid (145 mM NaCl, 2.5 mM KCl, 10 mM HEPES, 10 mM D-glucose, 1.2 mM MgCl2, 1.5 mM CaCl2, 2.5 mM probenecid, pH adjusted to 7.40 with NaOH 1.0 M)) is added to each well and the plates are incubated for 60 min at 5% CO2, 37° C.
10 μl of test compound, diluted to the required concentration in Tyrodes buffer+probenecid (or 10 μl Tyrodes buffer+probenecid as a control) is added to each well and the plate is incubated for 30 min at 37° C., 5% CO2. The plates are then placed into a FLIPR™ (Molecular. Devices, UK) to monitor cell fluorescence (λex=488 nm, λEM=540 nm) in the manner described in Sullivan et al., (In: Lambert DG (ed.), Calcium Signaling Protocols, New Jersey: Humana Press, 1999, 125-136) before and after the addition of […] at a concentration that results in the final assay concentration of histamine being EC80.
Functional antagonism is indicated by a suppression of histamine induced increase in fluorescence, as measured by the FLIPR™ system (Molecular Devices). By means of concentration effect curves, functional affinities are determined using standard pharmacological mathematical analysis.

Assay [2] addresses T1, human H1 receptor. As to the kind of experiment: Histamine H1 functional antagonist assay: determination of antagonist duration (washout, FLIPR). It is filed as cell-based. To be noted: at one or more time points after washout. An outline of the steps:
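CHO cells stably expressing human H1 exposed 30 min to antagonist at a level giving DR ~30-300, washed, then left to dissociate 30-270 min at 37° C before Fluo-4 FLIPR histamine challenge. Occupancy = (DR-1)/DR; regression slope over time and relative DR index duration.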

T1 sequence (P35367 whole entry): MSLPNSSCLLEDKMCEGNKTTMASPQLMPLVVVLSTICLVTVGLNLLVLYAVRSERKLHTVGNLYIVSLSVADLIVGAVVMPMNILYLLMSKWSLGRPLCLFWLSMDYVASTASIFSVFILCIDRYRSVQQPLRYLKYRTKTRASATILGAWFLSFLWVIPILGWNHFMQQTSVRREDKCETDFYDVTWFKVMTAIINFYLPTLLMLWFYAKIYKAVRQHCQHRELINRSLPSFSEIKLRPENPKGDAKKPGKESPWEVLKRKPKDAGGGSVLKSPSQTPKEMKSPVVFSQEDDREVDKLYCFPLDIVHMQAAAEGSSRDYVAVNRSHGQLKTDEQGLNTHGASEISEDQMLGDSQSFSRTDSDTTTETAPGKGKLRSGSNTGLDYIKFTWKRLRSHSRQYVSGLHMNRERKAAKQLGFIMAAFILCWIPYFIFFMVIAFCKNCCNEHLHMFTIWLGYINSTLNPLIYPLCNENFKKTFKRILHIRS

`COCCC(=O)NCCN1CCC[C@@H]1Cn1nc(Cc2ccc(Cl)cc2)c2ccccc2c1=O.O=CO` [Example 35, N-[2-((2R)-2-{[4-[(4-Chlorophenyl)methyl]-1-oxo-2(1H)-phthalazinyl]methyl}-1-pyrrolidinyl)ethyl]-3-(methyloxy)propanamide, formate salt]: the Ki on human H1 receptor [1] was less than 316 nM. Further, the “duration of action compared with azelastine in the histamine H1 functional antagonist assay” value at human H1 receptor [2] is recorded as “longer duration of action than azelastine”.

Regarding `Cl.O=C(CC(F)(F)F)NCCN1CCC[C@@H]1Cn1nc(Cc2ccc(Cl)cc2)c2ccccc2c1=O` [Example 36a, N-[2-((2R)-2-{[4-[(4-Chlorophenyl)methyl]-1-oxo-2(1H)-phthalazinyl]methyl}-1-pyrrolidinyl)ethyl]-3,3,3-trifluoropropanamide, hydrochloride], the Ki at human H1 receptor [1] is less than 31.6 nM. In addition, the “duration of action compared with azelastine in the histamine H1 functional antagonist assay” value at human H1 receptor [2] is given as “longer duration of action than azelastine”.
